The NIST ThermoML archive (doi:10.1016/j.jct.2014.10.001)
Where “and” joins values, the source holds several entries; their conditions need not be identical. Identical values can stand only once.

Assay: xn = mol fraction of the nth substance listed
Settings: Gas, Buoyancy - hydrostatic balance with magnetic suspension - one sinker

FCC(F)(F)F [1,1,1,2-tetrafluoroethane] + CCC
Settings | mass density
258.14 K, 113.78 kPa, x1 = 0.5401 | 4.1262 kg/m3
258.14 K, 154.11 kPa, x1 = 0.5401 | 5.651 kg/m3
258.15 K, 190.72 kPa, x1 = 0.5401 | 7.0674 kg/m3
258.15 K, 242.95 kPa, x1 = 0.5401 | 9.1445 kg/m3
258.16 K, 154.01 kPa, x1 = 0.7989 | 6.8087 kg/m3
258.16 K, 168.96 kPa, x1 = 0.2391 | 4.7661 kg/m3
258.17 K, 103.24 kPa, x1 = 0.2391 | 2.8628 kg/m3
258.17 K, 106.9 kPa, x1 = 0.7989 | 4.6538 kg/m3
258.18 K, 197.88 kPa, x1 = 0.7989 | 8.8817 kg/m3
258.19 K, 252.34 kPa, x1 = 0.2391 | 7.2822 kg/m3
263.13 K, 101.57 kPa, x1 = 0.5401 | 3.5945 kg/m3
263.13 K, 101.58 kPa, x1 = 0.5401 | 3.5946 kg/m3
263.14 K, 134.16 kPa, x1 = 0.6201 | 5.0876 kg/m3
263.14 K, 166.53 kPa, x1 = 0.5401 | 5.9917 kg/m3
263.14 K, 183.78 kPa, x1 = 0.7989 | 8.0203 kg/m3
263.14 K, 220.07 kPa, x1 = 0.5401 | 8.0347 kg/m3
263.14 K, 225.37 kPa, x1 = 0.7989 | 9.9705 kg/m3
263.14 K, 281.67 kPa, x1 = 0.5401 | 10.4652 kg/m3
263.15 K, 99.9 kPa, x1 = 0.7989 | 4.2498 kg/m3
263.15 K, 102.04 kPa, x1 = 0.2391 | 2.7715 kg/m3
263.15 K, 145.63 kPa, x1 = 0.7989 | 6.2807 kg/m3
263.15 K, 194.24 kPa, x1 = 0.6201 | 7.4918 kg/m3
263.15 K, 259.7 kPa, x1 = 0.6201 | 10.2107 kg/m3
263.16 K, 203.74 kPa, x1 = 0.2391 | 5.6732 kg/m3
263.17 K, 305.05 kPa, x1 = 0.2391 | 8.7279 kg/m3
268.12 K, 231.64 kPa, x1 = 0.7989 | 10.0266 kg/m3
268.13 K, 104.95 kPa, x1 = 0.7989 | 4.3792 kg/m3
268.13 K, 150.69 kPa, x1 = 0.7989 | 6.3684 kg/m3
268.13 K, 213.45 kPa, x1 = 0.6201 | 8.092 kg/m3
268.14 K, 104.92 kPa, x1 = 0.5401 | 3.6381 kg/m3
268.14 K, 125.37 kPa, x1 = 0.6201 | 4.6466 kg/m3
268.14 K, 190.18 kPa, x1 = 0.7989 | 8.1303 kg/m3
268.14 K, 285.39 kPa, x1 = 0.7989 | 12.5661 kg/m3
268.14 K, 300.29 kPa, x1 = 0.6201 | 11.6624 kg/m3
268.15 K, 183.8 kPa, x1 = 0.5401 | 6.4973 kg/m3
268.15 K, 268.92 kPa, x1 = 0.5401 | 9.7174 kg/m3
268.16 K, 198.02 kPa, x1 = 0.2391 | 5.3921 kg/m3
268.16 K, 341.03 kPa, x1 = 0.5401 | 12.5709 kg/m3
268.17 K, 119.34 kPa, x1 = 0.2391 | 3.1919 kg/m3
268.17 K, 286.65 kPa, x1 = 0.2391 | 7.9728 kg/m3
268.17 K, 365.93 kPa, x1 = 0.2391 | 10.3898 kg/m3
273.1 K, 170.36 kPa, x1 = 0.5401 | 5.8806 kg/m3
273.1 K, 283.04 kPa, x1 = 0.6201 | 10.6873 kg/m3
273.1 K, 358.16 kPa, x1 = 0.6201 | 13.8005 kg/m3
273.1 K, 411.8 kPa, x1 = 0.5401 | 15.1107 kg/m3
273.11 K, 105.09 kPa, x1 = 0.5401 | 3.5743 kg/m3
273.11 K, 121.2 kPa, x1 = 0.6201 | 4.3969 kg/m3
273.11 K, 251.59 kPa, x1 = 0.5401 | 8.853 kg/m3
273.11 K, 262.93 kPa, x1 = 0.7989 | 11.2212 kg/m3
273.11 K, 323.14 kPa, x1 = 0.5401 | 11.5758 kg/m3
273.12 K, 100.04 kPa, x1 = 0.7989 | 4.0831 kg/m3
273.12 K, 122.4 kPa, x1 = 0.2391 | 3.2081 kg/m3
273.12 K, 206.06 kPa, x1 = 0.6201 | 7.6287 kg/m3
273.12 K, 451.8 kPa, x1 = 0.2391 | 12.8024 kg/m3
273.13 K, 144.28 kPa, x1 = 0.7989 | 5.9572 kg/m3
273.13 K, 204.71 kPa, x1 = 0.2391 | 5.4646 kg/m3
273.13 K, 216.26 kPa, x1 = 0.7989 | 9.1063 kg/m3
273.13 K, 288.63 kPa, x1 = 0.2391 | 7.853 kg/m3
273.13 K, 319.28 kPa, x1 = 0.7989 | 13.8595 kg/m3
273.13 K, 364.79 kPa, x1 = 0.2391 | 10.1086 kg/m3
278.12 K, 123.52 kPa, x1 = 0.6201 | 4.396 kg/m3
278.13 K, 236.83 kPa, x1 = 0.6201 | 8.6438 kg/m3
278.14 K, 337.13 kPa, x1 = 0.6201 | 12.6083 kg/m3
278.14 K, 433.01 kPa, x1 = 0.6201 | 16.603 kg/m3
278.15 K, 103.41 kPa, x1 = 0.7989 | 4.1428 kg/m3
278.15 K, 194.41 kPa, x1 = 0.5401 | 6.606 kg/m3
278.15 K, 286.8 kPa, x1 = 0.7989 | 12.0403 kg/m3
278.15 K, 289.3 kPa, x1 = 0.5401 | 10.0435 kg/m3
278.15 K, 381.08 kPa, x1 = 0.7989 | 16.4363 kg/m3 and 16.4338 kg/m3
278.15 K, 419.02 kPa, x1 = 0.5401 | 15.0163 kg/m3
278.15 K, 504.76 kPa, x1 = 0.5401 | 18.5053 kg/m3
278.16 K, 115.44 kPa, x1 = 0.5401 | 3.8575 kg/m3
278.16 K, 152.51 kPa, x1 = 0.7989 | 6.1813 kg/m3
278.16 K, 230.77 kPa, x1 = 0.7989 | 9.5443 kg/m3
278.19 K, 442.42 kPa, x1 = 0.2391 | 12.1807 kg/m3
278.2 K, 102.16 kPa, x1 = 0.2391 | 2.6113 kg/m3
278.2 K, 233.61 kPa, x1 = 0.2391 | 6.1346 kg/m3
278.2 K, 514.55 kPa, x1 = 0.2391 | 14.4261 kg/m3
278.21 K, 366.56 kPa, x1 = 0.2391 | 9.9124 kg/m3
283.13 K, 211.19 kPa, x1 = 0.7822 | 8.4187 kg/m3
283.13 K, 329.43 kPa, x1 = 0.7822 | 13.5211 kg/m3
283.13 K, 459.52 kPa, x1 = 0.7822 | 19.5449 kg/m3
283.14 K, 311.18 kPa, x1 = 0.5401 | 10.6211 kg/m3
283.14 K, 501.49 kPa, x1 = 0.5401 | 17.8976 kg/m3
283.15 K, 101.13 kPa, x1 = 0.5401 | 3.3055 kg/m3
283.15 K, 102.6 kPa, x1 = 0.7822 | 3.9912 kg/m3
283.15 K, 120.94 kPa, x1 = 0.6201 | 4.2161 kg/m3
283.15 K, 198.01 kPa, x1 = 0.6201 | 7.0141 kg/m3
283.15 K, 210.93 kPa, x1 = 0.5401 | 7.0468 kg/m3
283.15 K, 416.97 kPa, x1 = 0.5401 | 14.5789 kg/m3
283.15 K, 602.24 kPa, x1 = 0.5401 | 22.0672 kg/m3
283.16 K, 415.7 kPa, x1 = 0.6201 | 15.476 kg/m3
283.16 K, 514.53 kPa, x1 = 0.6201 | 19.6465 kg/m3
283.17 K, 114.18 kPa, x1 = 0.2391 | 2.8713 kg/m3
283.17 K, 457.55 kPa, x1 = 0.2391 | 12.3388 kg/m3
283.17 K, 636.31 kPa, x1 = 0.2391 | 17.9209 kg/m3
283.18 K, 185.02 kPa, x1 = 0.2391 | 4.7134 kg/m3
283.18 K, 298.86 kPa, x1 = 0.2391 | 7.7872 kg/m3
283.18 K, 383.01 kPa, x1 = 0.2391 | 10.158 kg/m3
288.1 K, 100.89 kPa, x1 = 0.7822 | 3.85 kg/m3
288.12 K, 214.43 kPa, x1 = 0.7822 | 8.3795 kg/m3
288.12 K, 325.43 kPa, x1 = 0.7822 | 13.0428 kg/m3
288.12 K, 552.55 kPa, x1 = 0.7822 | 23.4956 kg/m3
288.12 K, 552.56 kPa, x1 = 0.7822 | 23.4963 kg/m3
288.12 K, 709.34 kPa, x1 = 0.5401 | 26.0161 kg/m3
288.13 K, 102.08 kPa, x1 = 0.5401 | 3.2763 kg/m3
288.13 K, 317.7 kPa, x1 = 0.5401 | 10.6307 kg/m3
288.13 K, 424.11 kPa, x1 = 0.5401 | 14.5146 kg/m3
288.13 K, 446.77 kPa, x1 = 0.6201 | 16.3715 kg/m3
288.13 K, 448.02 kPa, x1 = 0.7822 | 18.5148 kg/m3
288.13 K, 514.46 kPa, x1 = 0.5401 | 17.9692 kg/m3
288.13 K, 613.19 kPa, x1 = 0.5401 | 21.9339 kg/m3
288.14 K, 209.2 kPa, x1 = 0.5401 | 6.8504 kg/m3
288.14 K, 232.81 kPa, x1 = 0.6201 | 8.1461 kg/m3
288.14 K, 332.05 kPa, x1 = 0.6201 | 11.8593 kg/m3
288.15 K, 122.39 kPa, x1 = 0.6201 | 4.191 kg/m3
288.15 K, 553.06 kPa, x1 = 0.6201 | 20.7897 kg/m3
288.43 K, 753.42 kPa, x1 = 0.2391 | 21.238 kg/m3
288.45 K, 459.95 kPa, x1 = 0.2391 | 12.1079 kg/m3
288.45 K, 680.21 kPa, x1 = 0.2391 | 18.823 kg/m3
288.46 K, 121.21 kPa, x1 = 0.2391 | 2.9907 kg/m3
288.46 K, 302.44 kPa, x1 = 0.2391 | 7.7138 kg/m3
288.46 K, 384.07 kPa, x1 = 0.2391 | 9.9536 kg/m3
288.46 K, 571.46 kPa, x1 = 0.2391 | 15.4131 kg/m3
288.47 K, 209.6 kPa, x1 = 0.2391 | 5.253 kg/m3
293.14 K, 105.81 kPa, x1 = 0.7822 | 3.9639 kg/m3
293.15 K, 425.23 kPa, x1 = 0.7822 | 17.0517 kg/m3
293.15 K, 454.02 kPa, x1 = 0.5401 | 15.2811 kg/m3
293.15 K, 540.93 kPa, x1 = 0.7822 | 22.3179 kg/m3
293.15 K, 558.53 kPa, x1 = 0.5401 | 19.2207 kg/m3
293.15 K, 637.77 kPa, x1 = 0.7822 | 27.0005 kg/m3
293.15 K, 758.84 kPa, x1 = 0.5401 | 27.3827 kg/m3
293.15 K, 856.96 kPa, x1 = 0.5401 | 31.7378 kg/m3
293.16 K, 103.22 kPa, x1 = 0.5401 | 3.2534 kg/m3
293.16 K, 213.45 kPa, x1 = 0.7822 | 8.1673 kg/m3
293.16 K, 216.96 kPa, x1 = 0.5401 | 6.9744 kg/m3
293.16 K, 311.55 kPa, x1 = 0.7822 | 12.1753 kg/m3
293.16 K, 328.59 kPa, x1 = 0.5401 | 10.787 kg/m3
293.16 K, 662.93 kPa, x1 = 0.5401 | 23.3629 kg/m3
293.17 K, 427.29 kPa, x1 = 0.6201 | 15.2346 kg/m3
293.17 K, 611.78 kPa, x1 = 0.6201 | 22.7331 kg/m3
293.18 K, 124.6 kPa, x1 = 0.6201 | 4.1917 kg/m3
293.18 K, 229.76 kPa, x1 = 0.6201 | 7.8762 kg/m3
293.18 K, 328.76 kPa, x1 = 0.6201 | 11.4874 kg/m3
293.18 K, 525.37 kPa, x1 = 0.6201 | 19.1338 kg/m3
293.19 K, 728.09 kPa, x1 = 0.6201 | 27.8461 kg/m3
